Experimental findings from ChEMBL document CHEMBL1641398, “Norlignans, acylphloroglucinols, and a dimeric xanthone from Hypericum chinense” (2010) are described below.

Format in all cases: functional
In test [1] the test system is Staphylococcus aureus. In words: Antibacterial activity against multi drug-resistant Staphylococcus aureus 1199B after 18 hrs by MTT assay. (Tetrazolium assays rely on reduction of a dye to a coloured formazan, in cell work by metabolically active cells.)
For test [2], the system named is Staphylococcus aureus. Description: Antibacterial activity against multi drug-resistant Staphylococcus aureus XU212 after 18 hrs by MTT assay. Particulars: XU212, 18 h.
For test [3], the system named is Staphylococcus aureus. Description: Antibacterial activity against Staphylococcus aureus ATCC […] after 18 hrs by MTT assay.
Test [4] concerns Staphylococcus aureus. In words: Antibacterial activity against erythromycin-resistant Staphylococcus aureus RN4220 after 18 hrs by MTT assay. Particulars: RN4220, 18 h.
In test [5] the test system is Staphylococcus aureus. In words: Antibacterial activity against epidemic methicillin-resistant Staphylococcus aureus 15 after 18 hrs by MTT assay. The settings on record: Staphylococcus aureus, 15, 18 h.
Test [6] relates to Staphylococcus aureus. In words: Antibacterial activity against epidemic methicillin-resistant Staphylococcus aureus 16 after 18 hrs by MTT assay. The settings on record: Staphylococcus aureus, 16, 18 h.

Structures are written as SMILES. Values after ≈ are worked out from the molar mass of the structure shown.

On to `COc1cc(O)c(C(=O)CC(C)C)c(O)c1C` [ASPIDINOL C], for which the minimum inhibitory concentration (MIC) (as a rule, the smallest concentration in the dilution series that meets the test's criterion for growth inhibition) in test [1] was found to be 2 µg/mL (≈ 8.39 µM); in test [2] it was 32 µg/mL (≈ 134 µM); in test [3], 8 µg/mL (≈ 33.6 µM); in test [4], 16 µg/mL (≈ 67.1 µM); in test [5], 8 µg/mL (≈ 33.6 µM); in test [6], 4 µg/mL (≈ 16.8 µM).

`CCC(C)C(=O)c1c(O)cc(OC)c(C)c1O` (stereo not drawn) [ASPIDINOL D]: the minimal inhibitory concentration (MIC) in test [1] was 4 µg/mL (≈ 16.8 µM); in test [2], 8 µg/mL (≈ 33.6 µM); in test [3], 8 µg/mL (≈ 33.6 µM); in test [4] it was 8 µg/mL (≈ 33.6 µM); in test [5] it was 4 µg/mL (≈ 16.8 µM); in test [6], 4 µg/mL (≈ 16.8 µM).

For the compound `CCn1cc(C(=O)O)c(=O)c2cc(F)c(N3CCNCC3)cc21` [NORFLOXACIN], the MIC is 32 µg/mL (≈ 100 µM) in test [1]; 8 µg/mL (≈ 25.1 µM) in test [2]; 0.5 µg/mL (≈ 1.57 µM) in test [3]; 0.5 µg/mL (≈ 1.57 µM) in test [4]; 0.5 µg/mL (≈ 1.57 µM) in test [5]; 128 µg/mL (≈ 401 µM) in test [6].
